Test results reported in patent publication US6387415B1, “Sequestered metal biocides using ionic polymeric stabilizing agents” (Bio-Lab, Inc., priority 1995, dated 2002).
Like-named read-outs stand apart in the source and are kept apart here.

What was measured:
Format in all cases: cell-based
E. Coli = assay: MIC study against bacteria on microtiter plates; design: key: (−) indicates no bacterial growth was seen; (+) indicates bacterial growth was seen
Experimental: (§1) MIC data gives the minimum concentration of biocide needed to prevent growth of bacteria in a culture. Individual MIC's were determined by screening on microtiter plates. In order to determine the MIC's, 50 μl of phosphate water is added to each row in columns 2-12. Next, 100 μl of a biocide is added to column […]). Fifty microliters of the biocide is removed from column 1 and serially diluted from columns 2-11 using an eight tip pipettor (octapette). Finally, 50 μl of microbial inoculum is added to columns 1-11 (all rows) and column 12 (row A and E only). Column 12 serves as the row for sterility and viability controls. Bacterial inoculua contain about 1×10^9 colony forming units (cfu) per ml are prepared in 1⁄5 strength Nutrient broth. Bacterial microtiter plates are incubated at 37° C. for 48 hours. MIC's are determined by visual observation of the plates.

S. aureus = assay: MIC study against bacteria on microtiter plates; design: key: (−) indicates no bacterial growth was seen; (+) indicates bacterial growth was seen
Experimental: as §1

Phormidium sp. = assay: MIC study against algae (visual growth after two weeks); design: key: (−) indicates no algae growth was seen; (+) indicates algae growth was seen
Experimental: (§2) MIC data gives the minimum concentration of biocide needed to prevent growth of the algae in a culture.
(§3) The MIC studies are performed in sterile glassware using both viability and sterility controls. An algae suspension is added to test tubes containing the appropriate amounts of test biocide and the tubes are incubated for two weeks under fluorescent lights (on a “12 hour on”/“12 hour off” lighting regimen). The cultures are then measured by visual observation to determine the presence of living algae.

Phormidium inudatum = assay: as above; design: key: (−) indicates no algae growth was seen; (+) indicates algae growth was seen
Experimental: as §2, §3

Chlorella sp. = assay: as above; design: key: (−) indicates no algae growth was seen; (+) indicates algae growth was seen
Experimental: as §2, §3

Compound	bacterial growth, MIC results against E. Coli (E. Coli)	bacterial growth, MIC results against S. aureus (S. aureus)	algae growth, MIC results against Phormidium sp. (Phormidium sp.)	algae growth, MIC results against Phormidium inudatum (Phormidium inudatum)	algae growth, MIC results against Chlorella sp. (Chlorella sp.)	bacterial growth, MIC results against E. Coli (E. Coli; Silver Conc. 0.39 ppm)	bacterial growth, MIC results against E. Coli (E. Coli; Silver Conc. 1.56 ppm)	bacterial growth, MIC results against E. Coli (E. Coli; Silver Conc. 3.1 ppm)	bacterial growth, MIC results against E. Coli (E. Coli; Silver Conc. 12.5 ppm)	bacterial growth, MIC results against E. Coli (E. Coli; Silver Conc. 25 ppm)	bacterial growth, MIC results against S. aureus (S. aureus; Silver Conc. 0.39 ppm)	bacterial growth, MIC results against S. aureus (S. aureus; Silver Conc. 0.78 ppm)	bacterial growth, MIC results against S. aureus (S. aureus; Silver Conc. 1.56 ppm)	bacterial growth, MIC results against S. aureus (S. aureus; Silver Conc. 12.5 ppm)	bacterial growth, MIC results against S. aureus (S. aureus; Silver Conc. 25 ppm)
O=S(=O)([O-])[O-].[Cu+2] [Unsequestered Copper, copper sulfate]	− and +	− and +	−	−	−										
[Ag] [Unsequestered Silver]						+	+	−	−	−	+	+	−	−	−
